PubChem BioAssay AID2060906 (Molecular Pharmacology Branch, DTP, NCI, 2025)

Test system: 485176-168-R4-J1-PDC complex spheroid growth
Experiment: Anticancer human tumor 485176-168-R4-J1-PDC patient-derived pancreatic adenocarcinoma cell line growth inhibition [RAS]
Conditions: for IC50: curve of first compound; for viability, T/C: stronger effect = lower value
How it was run: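 Agents were tested in combination matrices in half-log decrements from a top concentration at or near clinical Cmax (10 microM if undetermined). Targets were multi-cell spheroids of tumour lines plus HUVEC and MSC stromal cells.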

[1] = second compound 0.0316 µM, first compound 0.0316 µM
[2] = second compound 0.0316 µM, first compound 0.1 µM
[3] = second compound 0.0316 µM, first compound 0.316 µM
[4] = second compound 0.0316 µM, first compound 1 µM
[5] = second compound 0.1 µM, first compound 0.0316 µM
[6] = second compound 0.1 µM, first compound 0.1 µM
[7] = second compound 0.1 µM, first compound 0.316 µM
[8] = second compound 0.1 µM, first compound 1 µM
[9] = second compound 0.316 µM, first compound 0.0316 µM
[10] = second compound 0.316 µM, first compound 0.1 µM
[11] = second compound 0.316 µM, first compound 0.316 µM
[12] = second compound 0.316 µM, first compound 1 µM
[13] = second compound 1 µM, first compound 0.0316 µM
[14] = second compound 1 µM, first compound 0.1 µM
[15] = second compound 1 µM, first compound 0.316 µM
[16] = second compound 1 µM, first compound 1 µM
[17] = second compound 3.16 µM, first compound 0.0316 µM
[18] = second compound 3.16 µM, first compound 0.1 µM
[19] = second compound 3.16 µM, first compound 0.316 µM
[20] = second compound 3.16 µM, first compound 1 µM
[21] = second compound 10 µM, first compound 0.0316 µM
[22] = second compound 10 µM, first compound 0.1 µM
[23] = second compound 10 µM, first compound 0.316 µM
[24] = second compound 10 µM, first compound 1 µM
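Further: spheroids exposed to compounds for seven days before readout.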
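Wherever viability, T/C is given: luminescence viability expressed relative to DMSO vehicle wells set as 100%.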

With C=CC(=O)N1CCN(c2nc(OCC3CCCN3C)nc3c(F)c(-c4nc(N)cc(C)c4C(F)(F)F)c(Cl)cc23)C(C)C1 (centres undefined) + C#Cc1c(F)ccc2cc(O)cc(-c3ncc4c(N5CC6CCC(C5)N6)nc(OCC56CCCN5CC(F)C6)nc4c3F)c12 the IC50 (second compound 0.0316 µM) was > 1000 nM, the IC50 (second compound 0.1 µM) was > 1000 nM and the IC50 (second compound 0.316 µM) was > 1000 nM. The IC50 (second compound 1 µM) was > 1000 nM, the IC50 (second compound 3.16 µM) was > 1000 nM and the IC50 (second compound 10 µM) was > 1000 nM. The viability, T/C (second compound 0.0316 µM, first compound 0.00316 µM) was 103%, the viability, T/C (second compound 0.0316 µM, first compound 0.01 µM) was 88.9% and the viability, T/C [1] was 88.5%. The viability, T/C [2] was 105%, the viability, T/C [3] was 96.8% and the viability, T/C [4] was 103%. The viability, T/C (second compound 0.1 µM, first compound 0.00316 µM) was 117%, the viability, T/C (second compound 0.1 µM, first compound 0.01 µM) was 109% and the viability, T/C [5] was 99.2%. The viability, T/C [6] was 102%, the viability, T/C [7] was 108% and the viability, T/C [8] was 103%. The viability, T/C (second compound 0.316 µM, first compound 0.00316 µM) was 86.8%, the viability, T/C (second compound 0.316 µM, first compound 0.01 µM) was 93.6% and the viability, T/C [9] was 103%. It also gave a viability, T/C [10] of 103%, a viability, T/C [11] of 87.3% and a viability, T/C [12] of 89.9%. It also gave a viability, T/C (second compound 1 µM, first compound 0.00316 µM) of 115%, a viability, T/C (second compound 1 µM, first compound 0.01 µM) of 83.1% and a viability, T/C [13] of 77.5%. For the same compound, the viability, T/C [14] was 101%, the viability, T/C [15] was 97.1% and the viability, T/C [16] was 86.1%. It also gave a viability, T/C (second compound 3.16 µM, first compound 0.00316 µM) of 115%, a viability, T/C (second compound 3.16 µM, first compound 0.01 µM) of 92.2% and a viability, T/C [17] of 85.3%. It also gave a viability, T/C [18] of 104%, a viability, T/C [19] of 98.1% and a viability, T/C [20] of 70.3%. For the same compound, the viability, T/C (second compound 10 µM, first compound 0.00316 µM) was 94.1%, the viability, T/C (second compound 10 µM, first compound 0.01 µM) was 81.8% and the viability, T/C [21] was 95.9%. For the same compound, the viability, T/C [22] was 94.6%, the viability, T/C [23] was 95.2% and the viability, T/C [24] was 94.8%.

In the case of CC(=O)OC12COC1CC(O)C1(C)C(=O)C(O)C3=C(C)C(OC(=O)C(O)C(NC(=O)OC(C)(C)C)c4ccccc4)CC(O)(C(OC(=O)c4ccccc4)C21)C3(C)C (centres undefined) + C#Cc1c(F)ccc2cc(O)cc(-c3ncc4c(N5CC6CCC(C5)N6)nc(OCC56CCCN5CC(F)C6)nc4c3F)c12, the IC50 (second compound 0.0316 µM) is reported as < 31.6 nM, the IC50 (second compound 0.1 µM) is reported as < 31.6 nM and the IC50 (second compound 0.316 µM) is reported as < 31.6 nM. For the same compound, the IC50 (second compound 1 µM) was < 31.6 nM, the IC50 (second compound 3.16 µM) was < 31.6 nM and the IC50 (second compound 10 µM) was < 31.6 nM. For the same compound, the viability, T/C [1] was 18.5%, the viability, T/C [2] was 15.3% and the viability, T/C [3] was 14.6%. The viability, T/C [4] was 13.5%, the viability, T/C (second compound 0.0316 µM, first compound 3.16 µM) was 18.5% and the viability, T/C (second compound 0.0316 µM, first compound 10 µM) was 21.8%. For the same compound, the viability, T/C [5] was 19.1%, the viability, T/C [6] was 14.5% and the viability, T/C [7] was 13.7%. The viability, T/C [8] was 14.9%, the viability, T/C (second compound 0.1 µM, first compound 3.16 µM) was 19.8% and the viability, T/C (second compound 0.1 µM, first compound 10 µM) was 21.2%. For the same compound, the viability, T/C [9] was 15.1%, the viability, T/C [10] was 12.4% and the viability, T/C [11] was 13.4%. The viability, T/C [12] was 11.6%, the viability, T/C (second compound 0.316 µM, first compound 3.16 µM) was 16.6% and the viability, T/C (second compound 0.316 µM, first compound 10 µM) was 19.4%. The viability, T/C [13] was 17%, the viability, T/C [14] was 15.8% and the viability, T/C [15] was 12.8%. The viability, T/C [16] was 11.8%, the viability, T/C (second compound 1 µM, first compound 3.16 µM) was 19.2% and the viability, T/C (second compound 1 µM, first compound 10 µM) was 20.6%. The viability, T/C [17] was 20.6%, the viability, T/C [18] was 16.5% and the viability, T/C [19] was 15.2%. The viability, T/C [20] was 13.8%, the viability, T/C (second compound 3.16 µM, first compound 3.16 µM) was 16.5% and the viability, T/C (second compound 3.16 µM, first compound 10 µM) was 20.6%. The viability, T/C [21] was 16.5%, the viability, T/C [22] was 12.2% and the viability, T/C [23] was 13.3%. It also gave a viability, T/C [24] of 11.7%, a viability, T/C (second compound 10 µM, first compound 3.16 µM) of 16% and a viability, T/C (second compound 10 µM, first compound 10 µM) of 19%.
